Results reported in patent US20070099877A1, “N-aryl-thienopyrimidin-4-amines and analogs as activators of caspases and inducers of apoptosis and the use thereof” (Cytovia, Inc., priority 2005, published 2007).
Structures can show the parent of a compound that is named as a salt.

These compounds were tested on human breast cancer cell line T-47D (assay: Caspase cascade activation (DEVD-R110 fluorogenic substrate) in T-47D cells). Conditions: Homo sapiens, T47D, 24 h, T47D cells, 24 h; read-out: Caspase activation Potency EC50 T47D (24 h).
Format: cell-based
Description: (§1) Human breast cancer cell line T-47D, human lung cancer cell line H1299, human hepatocellular carcinoma cell line SNU398, human colon carcinoma cell line HCT116 were grown according to media component mixtures designated by American Type Culture Collection+10% FCS (Invitrogen Corporation), in a 5% CO2-95% humidity incubator at 37° C. T-47D and H1299 cells were maintained at a cell density between 50 and 80% confluency at a cell density of 0.1 to 0.6×10^6 cells/mL. Cells were harvested at 600×g and resuspended at 0.65×10^6 cells/mL into appropriate media+10% FCS. An aliquot of 22.5 μL of cells was added to a well of a 384-well microtiter plate containing 2.5 μL of a 10% DMSO in RPMI-1640 media solution containing 0.16 to 100 μM of N-(2,5-dimethoxyphenyl)-2-methylthieno[3,2-d]pyrimidin-4-amine or other test compound (0.016 to 10 μM final). An aliquot of 22.5 μL of cells was added to a well of a 384-well microtiter plate containing 2.5 μL of a 10% DMSO in RPMI-1640 media solution without test compound as the control sample. The samples were mixed by agitation and then incubated at 37° C. for 24 h or 48 h in a 5% CO2-95% humidity incubator. After incubation, the samples were removed from the incubator and 25 μL of a solution containing 14 μM of N-(Ac-DEVD)-N′-ethoxycarbonyl-R110 (SEQ ID NO.:1) fluorogenic substrate (Cytovia, Inc.; WO99/18856), 20% sucrose (Sigma), 20 mM DTT (Sigma), 200 mM NaCl (Sigma), 40 mM Na PIPES buffer pH 7.2 (Sigma), and 500 μg/mL lysolecithin (Calbiochem) was added. The samples were mixed by agitation and incubated at room temperature. Using a fluorescent plate reader (Model SPECTRAfluor Plus, Tecan), an initial reading (T=0) was made approximately 1-2 min after addition of the substrate solution, employing excitation at 485 nm and emission at 530 nm, to determine the background fluorescence of the control sample. After the 3 h incubation, the samples were read for fluorescence as above (T=3 h).
(§2) The Relative Fluorescence Unit values (RFU) were used to calculate the sample readings as follows: RFU(T=3h)−Control RFU(T=O)=Net RFU(T=3h)
(§3) The activity of caspase cascade activation was determined by the ratio of the net RFU value for N-(2,5-dimethoxyphenyl)-2-methylthieno[3,2-d]pyrimidin-4-amine or other test compound to that of control samples. The EC50 (nM) was determined by a sigmoidal dose-response calculation (Prism 3.0, GraphPad Software Inc.).

EC50 [nM]	Compound
> 10000	COc1ccc(OC)c(Nc2ncnc3sc(C)c(C)c23)c1 [Example 34, N-(2,5-Dimethoxyphenyl)-5,6-dimethylthieno[2,3-d]pyrimidin-4-amine]
> 10000	COc1ccc(Nc2nc(C)nc3scc(C)c23)cc1 [Example 13, N-(4-Methoxyphenyl)-2,5-dimethylthieno[2,3-d]pyrimidin-4-amine hydrochloride]

Same assay, conditions: Homo sapiens, T47D, 48 h, T-47D cells, 48 h; read-out: Caspase activation Potency EC50 T-47D (48 h)

EC50 [nM]	Compound
191	COc1cc(Nc2ncnc3ccsc23)cc(N(C)C)c1 [Example 69, N-(3-Dimethylamino-5-methoxyphenyl)thieno[3,2-d]pyrimidin-4-amine]
209	COc1cc(N=[N+]=[N-])cc(Nc2ncnc3ccsc23)c1 [Example 71, N-(3-Azido-5-methoxyphenyl)thieno[3,2-d]pyrimidin-4-amine]
> 10000	COc1ccc(OC)c(Nc2ncnc3sc(C)c(C)c23)c1 [Example 34, N-(2,5-Dimethoxyphenyl)-5,6-dimethylthieno[2,3-d]pyrimidin-4-amine]
> 10000	COc1ccc(Nc2nc(C)nc3scc(C)c23)cc1 [Example 13, N-(4-Methoxyphenyl)-2,5-dimethylthieno[2,3-d]pyrimidin-4-amine hydrochloride]

Each compound was assayed on human lung cancer cell line H1299 (assay: Caspase cascade activation in H1299 cells). Conditions: NCI-H1299, 24 h, read-out: Caspase activation Potency EC50 H1299 (24 h).
Format: cell-based
Description: as §1, §2, §3

EC50 [nM]	Compound
> 10000	COc1ccc(OC)c(Nc2ncnc3sc(C)c(C)c23)c1 [Example 34, N-(2,5-Dimethoxyphenyl)-5,6-dimethylthieno[2,3-d]pyrimidin-4-amine]
> 10000	COc1ccc(Nc2nc(C)nc3scc(C)c23)cc1 [Example 13, N-(4-Methoxyphenyl)-2,5-dimethylthieno[2,3-d]pyrimidin-4-amine hydrochloride]

Each compound was assayed on human hepatocellular carcinoma cell line SNU398 (assay: Caspase cascade activation in SNU398 cells). Conditions: Homo sapiens, SNU-398, 48 h, read-out: Caspase activation Potency EC50 SNU398 (48 h).
Format: cell-based
Description: as §1, §2, §3

EC50 [nM]	Compound
251	COc1cc(Nc2ncnc3ccsc23)cc(N(C)C)c1 [Example 69, N-(3-Dimethylamino-5-methoxyphenyl)thieno[3,2-d]pyrimidin-4-amine]
262	COc1cc(N=[N+]=[N-])cc(Nc2ncnc3ccsc23)c1 [Example 71, N-(3-Azido-5-methoxyphenyl)thieno[3,2-d]pyrimidin-4-amine]
> 10000	COc1ccc(OC)c(Nc2ncnc3sc(C)c(C)c23)c1 [Example 34, N-(2,5-Dimethoxyphenyl)-5,6-dimethylthieno[2,3-d]pyrimidin-4-amine]
> 10000	COc1ccc(Nc2nc(C)nc3scc(C)c23)cc1 [Example 13, N-(4-Methoxyphenyl)-2,5-dimethylthieno[2,3-d]pyrimidin-4-amine hydrochloride]

These compounds were tested on human colon carcinoma cell line HCT116 (assay: Caspase cascade activation in HCT116 cells). Conditions: Homo sapiens, HCT-116, 48 h, read-out: Caspase activation Potency EC50 HCT116 (48 h).
Format: cell-based
Description: as §1, §2, §3

EC50 [nM]	Compound
323	COc1cc(Nc2ncnc3ccsc23)cc(N(C)C)c1 [Example 69, N-(3-Dimethylamino-5-methoxyphenyl)thieno[3,2-d]pyrimidin-4-amine]
144	COc1cc(N=[N+]=[N-])cc(Nc2ncnc3ccsc23)c1 [Example 71, N-(3-Azido-5-methoxyphenyl)thieno[3,2-d]pyrimidin-4-amine]
> 10000	COc1ccc(OC)c(Nc2ncnc3sc(C)c(C)c23)c1 [Example 34, N-(2,5-Dimethoxyphenyl)-5,6-dimethylthieno[2,3-d]pyrimidin-4-amine]
> 10000	COc1ccc(Nc2nc(C)nc3scc(C)c23)cc1 [Example 13, N-(4-Methoxyphenyl)-2,5-dimethylthieno[2,3-d]pyrimidin-4-amine hydrochloride]

What follows are compounds tested on human breast cancer cell line T-47D (assay: Inhibition of cell proliferation (GI50, CellTiter-Glo) in T-47D cells). Conditions: Table IV, T47D cells, read-out: GI50 in Multi-Cancer Cells T47D.
Format: cell-based
Description: (§4) Human breast cancer cell lines T-47D, MX-1 and MDAMB435, human colon cancer cell line HT29, and human lung cancer cell line H1299 were grown and harvested as in Example 75. An aliquot of […] of cells (4.4×10^4 cells/mL) was added to a well of a 96-well microtiter plate containing 5 μL of a 10% DMSO in RPMI-1640 media solution containing 10 nM to 100 μM of N-(2,5-dimethoxyphenyl)-2-methylthieno[3,2-d]pyrimidin-4-amine (1 nM to 10 μM final). An aliquot of 45 μL of cells was added to a well of a 96-well microtiter plate containing 5 μL of a 10% DMSO in RPMI-1640 media solution without compound as the control sample for maximal cell proliferation (Lmax). The samples were mixed by agitation and then incubated at 37° C. for 48 h in a 5% CO2-95% humidity incubator. After incubation, the samples were removed from the incubator and 25 μL of CellTiter-Glo™ reagent (Promega) was added. The samples were mixed by agitation and incubated at room temperature for 10-15 min. Plates were then read using a luminescent plate reader (Model SPECTRAfluor Plus, Tecan) to give Ltest values.
(§5) Baseline for GI50 (dose for 50% inhibition of cell proliferation) of initial cell numbers was determined by adding an aliquot of 45 μL of cells or 45 μL of media, respectively, to wells of a 96-well microtiter plate containing 5 μL of a 10% DMSO in RPMI-1640 media solution. The samples were mixed by agitation and then incubated at 37° C. for 0.5 h in a 5% CO2-95% humidity incubator. After incubation, the samples were removed from the incubator and 25 μL of CellTiter-Glo™ reagent (Promega) was added. The samples were mixed by agitation and incubated at 37° C. for 10-15 min at room temperature in a 5% CO2-95% humidity incubator. Fluorescence was read as above, (LStart) defining luminescence for initial cell number used as baseline in GI50 determinations.
(§6) GI50 (dose for 50% inhibition of cell proliferation) is the concentration where [(LTest−Lstart)/(LMax−Lstart)]=0.5.

GI50 [nM]	Compound
133	COc1cc(Nc2ncnc3ccsc23)cc(N(C)C)c1 [Example 69, N-(3-Dimethylamino-5-methoxyphenyl)thieno[3,2-d]pyrimidin-4-amine]
208	COc1cc(N=[N+]=[N-])cc(Nc2ncnc3ccsc23)c1 [Example 71, N-(3-Azido-5-methoxyphenyl)thieno[3,2-d]pyrimidin-4-amine]

Each compound was assayed on human breast cancer cell line MX-1 (assay: Inhibition of cell proliferation (GI50) in MX-1 cells). Conditions: Table IV, MX1 cells, read-out: GI50 in Multi-Cancer Cells MX1.
Format: cell-based
Description: as §4, §5, §6

GI50 [nM]	Compound
9850	COc1cc(Nc2ncnc3ccsc23)cc(N(C)C)c1 [Example 69, N-(3-Dimethylamino-5-methoxyphenyl)thieno[3,2-d]pyrimidin-4-amine]
1670	COc1cc(N=[N+]=[N-])cc(Nc2ncnc3ccsc23)c1 [Example 71, N-(3-Azido-5-methoxyphenyl)thieno[3,2-d]pyrimidin-4-amine]

The compounds below were run on human breast cancer cell line MDAMB435 (assay: Inhibition of cell proliferation (GI50) in MDAMB435 cells). Conditions: MDA-MB-435, Table IV, read-out: GI50 in Multi-Cancer Cells MDAMB435.
Format: cell-based
Description: as §4, §5, §6

GI50 [nM]	Compound
41	COc1cc(Nc2ncnc3ccsc23)cc(N(C)C)c1 [Example 69, N-(3-Dimethylamino-5-methoxyphenyl)thieno[3,2-d]pyrimidin-4-amine]
92	COc1cc(N=[N+]=[N-])cc(Nc2ncnc3ccsc23)c1 [Example 71, N-(3-Azido-5-methoxyphenyl)thieno[3,2-d]pyrimidin-4-amine]

Each compound was assayed on human hepatocellular carcinoma cell line SNU398 (assay: Inhibition of cell proliferation (GI50) in SNU398 cells). Conditions: SNU-398, Table IV, read-out: GI50 in Multi-Cancer Cells SNU398.
Format: cell-based
Description: as §4, §5, §6
(§7) Several compounds were tested in multi cancer cell lines, including human breast cancer cell lines T-47D, MX-1, SKBR3 and MDAMB435, human hepatocellular carcinoma cell line SNU398, human colon carcinoma cell line HCT116, human sarcoma cell line MES-SA and multi-drug resistant (MDR) human sarcoma cell line MES-SA/ADR, murine leukemia cell line P388 and multi-drug resistant (MDR) murine leukemia cell line P388ADR, and the data are summarized in Table IV.

GI50 [nM]	Compound
276	COc1cc(Nc2ncnc3ccsc23)cc(N(C)C)c1 [Example 69, N-(3-Dimethylamino-5-methoxyphenyl)thieno[3,2-d]pyrimidin-4-amine]
305	COc1cc(N=[N+]=[N-])cc(Nc2ncnc3ccsc23)c1 [Example 71, N-(3-Azido-5-methoxyphenyl)thieno[3,2-d]pyrimidin-4-amine]

The compounds below were run on human colon carcinoma cell line HCT116 (assay: Inhibition of cell proliferation (GI50) in HCT116 cells). Conditions: HCT-116, Table IV, read-out: GI50 in Multi-Cancer Cells HCT116.
Format: cell-based
Description: as §4, §5, §6, §7

GI50 [nM]	Compound
300	COc1cc(Nc2ncnc3ccsc23)cc(N(C)C)c1 [Example 69, N-(3-Dimethylamino-5-methoxyphenyl)thieno[3,2-d]pyrimidin-4-amine]
300	COc1cc(N=[N+]=[N-])cc(Nc2ncnc3ccsc23)c1 [Example 71, N-(3-Azido-5-methoxyphenyl)thieno[3,2-d]pyrimidin-4-amine]

These compounds were tested on human breast cancer cell line SKBR3 (assay: Inhibition of cell proliferation (GI50) in SKBR3 cells). Conditions: SK-BR-3, Table IV, read-out: GI50 in Multi-Cancer Cells SKBR3.
Format: cell-based
Description: as §4, §5, §6, §7

GI50 [nM]	Compound
100	COc1cc(Nc2ncnc3ccsc23)cc(N(C)C)c1 [Example 69, N-(3-Dimethylamino-5-methoxyphenyl)thieno[3,2-d]pyrimidin-4-amine]
200	COc1cc(N=[N+]=[N-])cc(Nc2ncnc3ccsc23)c1 [Example 71, N-(3-Azido-5-methoxyphenyl)thieno[3,2-d]pyrimidin-4-amine]

These compounds were tested on human sarcoma cell line MES-SA (assay: Inhibition of cell proliferation (GI50) in MES-SA cells). Conditions: Table IV, read-out: GI50 in Multi-Cancer Cells MES-SA.
Format: cell-based
Description: as §4, §5, §6, §7

GI50 [nM]	Compound
600	COc1cc(Nc2ncnc3ccsc23)cc(N(C)C)c1 [Example 69, N-(3-Dimethylamino-5-methoxyphenyl)thieno[3,2-d]pyrimidin-4-amine]
385	COc1cc(N=[N+]=[N-])cc(Nc2ncnc3ccsc23)c1 [Example 71, N-(3-Azido-5-methoxyphenyl)thieno[3,2-d]pyrimidin-4-amine]

What follows are compounds tested on multi-drug resistant (MDR) human sarcoma cell line MES-SA/ADR (assay: Inhibition of cell proliferation (GI50) in MES-SA/ADR cells). Conditions: Table IV, read-out: GI50 in Multi-Cancer Cells MES-SA/ADR.
Format: cell-based
Description: as §4, §5, §6, §7

GI50 [nM]	Compound
520	COc1cc(Nc2ncnc3ccsc23)cc(N(C)C)c1 [Example 69, N-(3-Dimethylamino-5-methoxyphenyl)thieno[3,2-d]pyrimidin-4-amine]
796	COc1cc(N=[N+]=[N-])cc(Nc2ncnc3ccsc23)c1 [Example 71, N-(3-Azido-5-methoxyphenyl)thieno[3,2-d]pyrimidin-4-amine]

The compounds below were run on murine leukemia cell line P388 (assay: Inhibition of cell proliferation (GI50) in P388 cells). Conditions: Mus musculus, Table IV, read-out: GI50 in Multi-Cancer Cells P388.
Format: cell-based
Description: as §4, §5, §6, §7

GI50 [nM]	Compound
381	COc1cc(Nc2ncnc3ccsc23)cc(N(C)C)c1 [Example 69, N-(3-Dimethylamino-5-methoxyphenyl)thieno[3,2-d]pyrimidin-4-amine]
218	COc1cc(N=[N+]=[N-])cc(Nc2ncnc3ccsc23)c1 [Example 71, N-(3-Azido-5-methoxyphenyl)thieno[3,2-d]pyrimidin-4-amine]

Each compound was assayed on multi-drug resistant (MDR) murine leukemia cell line P388ADR (assay: Inhibition of cell proliferation (GI50) in P388/ADR cells). Conditions: Mus musculus, Table IV, read-out: GI50 in Multi-Cancer Cells P388/ADR.
Format: cell-based
Description: as §4, §5, §6, §7

GI50 [nM]	Compound
249	COc1cc(Nc2ncnc3ccsc23)cc(N(C)C)c1 [Example 69, N-(3-Dimethylamino-5-methoxyphenyl)thieno[3,2-d]pyrimidin-4-amine]
157	COc1cc(N=[N+]=[N-])cc(Nc2ncnc3ccsc23)c1 [Example 71, N-(3-Azido-5-methoxyphenyl)thieno[3,2-d]pyrimidin-4-amine]
